In patent US12257247B2 (Monte Rosa Therapeutics AG, priority 2023, dated 2025) one finds Dmax and DC50 data, which are given here for 18 molecules.

For the test, the target named is T1, VAV1 (Homo sapiens, UniProt P15498+Q96SW2).
T1 construct: A heterozygous VAV1 C-terminal HiBiT knock-in pool was generated at Monte Rosa Therapeutics from a clonal Jurkat cell; endogenous in cells; host or cells: Jurkat clone stably expressing LgBiT, homozygous GSPT1-G575N; heterozygous VAV1-HiBiT knock-in pool
Description: VAV1 degradation activity, VAV1-HiBiT knock-in Jurkat luminescence assay (Example A, Table 1). The note with it: VAV1-HiBiT knock-in Jurkat cells, luminescence read at 6 and 24 hours; for Dmax: Jurkat. The class given is cell-based. The gist of the method:
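Luminescence was measured at 6 and 24 h after adding compound (10 μM stock) to VAV1-HiBiT knock-in Jurkat cells, which had been pre-incubated ~16 h at 37° C. in RPMI/10% FBS containing Endurazine. EC50 values came from control-normalised responses fitted to a 3-parameter logistic model with hillslope fixed at 1.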
For orientation: The HiBiT peptide binds its large partner to form an active luciferase.

The mark [1] stands for this setting: read-out: VAV1 DC50 (nM), class.

Each structure is given as a SMILES string. Where two headings read alike, the source gives them in different places.

As usually defined, the Dmax is the largest share of the target that was removed. What is called DC50 is the midpoint of the concentration-degradation curve. Consider `O=C1CCC(c2cccc(-c3ccc(Oc4ccccn4)cc3)c2Cl)C(=O)N1` (stereo not drawn) [Compound 354, 3-(2-chloro-4′-(pyridin-2-yloxy)-[1,1′-biphenyl]-3-yl)piperidine-2,6-dione], for which the Dmax was 97.4% (read-out: VAV1 Dmax %) and over 90% (read-out: VAV1 Dmax %, class). For the same molecule, the DC50 was 13.3 nM (read-out: VAV1 DC50) and at most 100 nM under setting [1].
As for `O=C1CCC(c2cccc(-c3ccc(N4C(=O)CCC45COC5)cc3)c2Cl)C(=O)N1` (stereo not drawn) [Compound 355, 3-(2-chloro-4′-(6-oxo-2-oxa-5-azaspiro[3.4]octan-5-yl)-[1,1′-biphenyl]-3-yl)piperidine-2,6-dione], the Dmax by setting is: (read-out: VAV1 Dmax %) 91.8%; (read-out: VAV1 Dmax %, class) over 90%. In addition, the DC50 (read-out: VAV1 DC50) was found to be 15.9 nM and the DC50 under setting [1] was at most 100 nM.
As for `O=C1CCC(c2cccc(-c3ccc(N4C(=O)OCC45CC5)nc3)c2Cl)C(=O)N1` (stereo not drawn) [Compound 356, 3-(2-chloro-3-(6-(5-oxo-6-oxa-4-azaspiro[2.4]heptan-4-yl)pyridin-3-yl)phenyl)piperidine-2,6-dione], the Dmax is 86% (read-out: VAV1 Dmax %) and 60 to 90% (read-out: VAV1 Dmax %, class). Besides, the DC50 by setting is: (read-out: VAV1 DC50) 71.4 nM; under setting [1], at most 100 nM.
`O=C1CCC(c2cccc(-c3ccc(N4C(=O)OCC45CCC5)nc3)c2Cl)C(=O)N1` (stereo not drawn) [Compound 357, 3-(2-chloro-3-(6-(6-oxo-7-oxa-5-azaspiro[3.4]octan-5-yl)pyridin-3-yl)phenyl)piperidine-2,6-dione]: the Dmax reads like this: (read-out: VAV1 Dmax %) 90.8%; (read-out: VAV1 Dmax %, class) over 90%. The DC50 by setting is: (read-out: VAV1 DC50) 35.8 nM; under setting [1], at most 100 nM.
Turning to `O=C1CCC(c2cccc(-c3ccc(N4CCC5(COC5)C4=O)cc3)c2Cl)C(=O)N1` (stereo not drawn) [Compound 358, 3-(2-chloro-4′-(5-oxo-2-oxa-6-azaspiro[3.4]octan-6-yl)-[1,1′-biphenyl]-3-yl)piperidine-2,6-dione], the Dmax runs as follows: (read-out: VAV1 Dmax %) 44.3%; (read-out: VAV1 Dmax %, class) under 60%. In addition, the DC50 is, setting by setting: (read-out: VAV1 DC50) at least 10000 nM; under setting [1], over 1000 nM.
For `O=C1CCC(c2cccc(-c3ccc(N4C(=O)OCCC45CCC5)nc3)c2Cl)C(=O)N1` (stereo not drawn) [Compound 359, 3-(2-chloro-3-(6-(6-oxo-7-oxa-5-azaspiro-[3.5]nonan-5-yl)pyridin-3-yl)phenyl)piperidine-2,6-dione] the same measures were 95%, over 90%, 13.3 nM and at most 100 nM.
For `O=C1CCC(c2cccc(-c3ccc(Oc4ncccn4)cc3)c2Cl)C(=O)N1` (stereo not drawn) [Compound 360, 3-(2-chloro-4′-(pyrimidin-2-yloxy)-[1,1′-biphenyl]-3-yl)piperidine-2,6-dione] the same measures were 96.5%, over 90%, 6.85 nM and at most 100 nM.
For `O=C1CCC(c2cc(F)cc(-c3ccc(-n4ccccc4=O)cc3)c2Cl)C(=O)N1` (stereo not drawn) [Compound 361, 3-(2-chloro-5-fluoro-4′-(2-oxopyridin-1(2H)-yl)-[1,1′-biphenyl]-3-yl)piperidine-2,6-dione], the Dmax is 84.4% (read-out: VAV1 Dmax %) and 60 to 90% (read-out: VAV1 Dmax %, class). The DC50 (read-out: VAV1 DC50) was 76.4 nM and the 50% degradation concentration (DC50) under setting [1] is at most 100 nM.
For the molecule `O=C1CCC(c2cccc(-c3cnc(N4C(=O)CCCC45CC5)c(F)c3)c2Cl)C(=O)N1` (stereo not drawn) [Compound 362, 3-(2-chloro-3-(5-fluoro-6-(5-oxo-4-azaspiro[2.5]octan-4-yl)pyridin-3-yl)phenyl)piperidine-2,6-dione], the Dmax is, setting by setting: (read-out: VAV1 Dmax %) 87.5%; (read-out: VAV1 Dmax %, class) 60 to 90%. The DC50 by setting is: (read-out: VAV1 DC50) 69.6 nM; under setting [1], at most 100 nM.
Consider `Cn1ccc(Cn2c(=O)n(C)c3cc(-c4cccc(C5CCC(=O)NC5=O)c4Cl)ccc32)n1` (stereo not drawn) [Compound 363, 3-(2-chloro-3-(3-methyl-1-((1-methyl-1H-pyrazol-3-yl)methyl)-2-oxo-2,3-dihydro-1H-benzo[d]imidazol-5-yl)phenyl)piperidine-2,6-dione], for which the Dmax (read-out: VAV1 Dmax %) turned out to be 97.1% and the Dmax (read-out: VAV1 Dmax %, class) was over 90%. In addition, the DC50 was 4.86 nM (read-out: VAV1 DC50) and at most 100 nM under setting [1].
`O=C1CCC(c2cccc(-c3cnc(N4C(=O)CCC45CC5)c(F)c3)c2Cl)C(=O)N1` (stereo not drawn) [Compound 364, 3-(2-chloro-3-(5-fluoro-6-(5-oxo-4-azaspiro[2.4]heptan-4-yl)pyridin-3-yl)phenyl)piperidine-2,6-dione]: the maximal degradation (Dmax) by setting is: (read-out: VAV1 Dmax %) 71.7%; (read-out: VAV1 Dmax %, class) 60 to 90%. Moreover, the DC50 is 234 nM (read-out: VAV1 DC50) and 100 to 1000 nM under setting [1].
Consider `O=C1CCC(c2cccc(-c3cnc(N4C(=O)CCC45CCC5)c(F)c3)c2Cl)C(=O)N1` (stereo not drawn) [Compound 365, 3-(2-chloro-3-(5-fluoro-6-(6-oxo-5-azaspiro[3.4]octan-5-yl)pyridin-3-yl)phenyl)piperidine-2,6-dione], for which the Dmax runs as follows: (read-out: VAV1 Dmax %) 88%; (read-out: VAV1 Dmax %, class) 60 to 90%. The DC50 was 55 nM (read-out: VAV1 DC50) and at most 100 nM under setting [1].
Consider `CN1CCC2(CC2)N(c2ccc(-c3cccc(C4CCC(=O)NC4=O)c3Cl)cc2)C1=O` (stereo not drawn) [Compound 366, 3-(2-chloro-4′-(6-methyl-5-oxo-4,6-diazaspiro[2.5]octan-4-yl)-[1,1′-biphenyl]-3-yl)piperidine-2,6-dione], for which the Dmax reads like this: (read-out: VAV1 Dmax %) 97.8%; (read-out: VAV1 Dmax %, class) over 90%. The 50% degradation concentration (DC50) (read-out: VAV1 DC50) came out at 1.87 nM and the DC50 under setting [1] was at most 100 nM.
Regarding `O=C1CCC(c2cccc(-c3cnc(N4CCCCC4=O)c(F)c3)c2Cl)C(=O)N1` (stereo not drawn) [Compound 369, 3-(2-chloro-3-(5-fluoro-6-(2-oxopiperidin-1-yl)pyridin-3-yl)phenyl)piperidine-2,6-dione], the Dmax is 69.5% (read-out: VAV1 Dmax %) and 60 to 90% (read-out: VAV1 Dmax %, class). In addition, the DC50 by setting is: (read-out: VAV1 DC50) 331 nM; under setting [1], 100 to 1000 nM.
In the case of `O=C1CCC(c2cccc(-c3cnc(Cc4ncco4)c(F)c3)c2Cl)C(=O)N1` (stereo not drawn) [Compound 370, 3-(2-chloro-3-(5-fluoro-6-(oxazol-2-ylmethyl)pyridin-3-yl)phenyl)piperidine-2,6-dione], the Dmax (read-out: VAV1 Dmax %) worked out at 58.1% and the Dmax (read-out: VAV1 Dmax %, class) was under 60%. The DC50 (read-out: VAV1 DC50) stood at 1570 nM and the DC50 under setting [1] was over 1000 nM.
`CN1CC2(CCC(=O)N2c2ccc(-c3cccc(C4CCC(=O)NC4=O)c3Cl)cc2)C1` (stereo not drawn) [Compound 371, 3-(2-chloro-4′-(2-methyl-6-oxo-2,5-diazaspiro[3.4]octan-5-yl)-[1,1′-biphenyl]-3-yl)piperidine-2,6-dione]: the greatest degradation seen (Dmax) by setting is: (read-out: VAV1 Dmax %) 37.8%; (read-out: VAV1 Dmax %, class) under 60%. For the same molecule, the DC50 (read-out: VAV1 DC50) is at least 10000 nM and the DC50 under setting [1] was over 1000 nM.
As for `O=C1CCC(c2cccc(-c3ccc(N4CCCNC4=O)cc3)c2Cl)C(=O)N1` (stereo not drawn) [Compound 372, 3-(2-chloro-4′-(2-oxotetrahydropyrimidin-1(2H)-yl)-[1,1′-biphenyl]-3-yl)piperidine-2,6-dione], the Dmax by setting is: (read-out: VAV1 Dmax %) 94.4%; (read-out: VAV1 Dmax %, class) over 90%. In addition, the DC50 reads like this: (read-out: VAV1 DC50) 10 nM; under setting [1], at most 100 nM.
Consider `O=C1CCC(c2cccc(-c3ccc(Cc4ccco4)cc3)c2Cl)C(=O)N1` (stereo not drawn) [Compound 373, 3-(2-chloro-4′-(furan-2-ylmethyl)-[1,1′-biphenyl]-3-yl)piperidine-2,6-dione], for which the Dmax reads like this: (read-out: VAV1 Dmax %) 97.2%; (read-out: VAV1 Dmax %, class) over 90%. The half-maximal degradation concentration (DC50) was 25.6 nM (read-out: VAV1 DC50) and at most 100 nM under setting [1].
